# B1: FasL: inducer of apoptosis in AEC (protein, UniProt P48023 130-281, looked up)
# Tumor necrosis factor ligand …: QIGHPSPPPEKKELRKVAHLTGKSNSRSMPLEWEDTYGIVLLSGVKYKKGGLVINETGLYFVYSKVYFRGQSCNNLPLSHKVYMRNSKYPQDLVMMEGKMMSYCTTGQMWARSSYLGAVFNLTSADHLYVNVSELSLVNFEESQTFFGLYKL
# How the values were obtained:
# Assay type in all cases: cell-based, human
# [1] = test system: alveolar epithelial cells (AEC, A549); test: Caspase 3 Assay, FasL- and cisplatin-induced apoptosis; details: for FasL-induced apoptosis (caspase 3 activity) / cisplatin-induced apoptosis (caspase 3 activity): AEC, 24 hours, peptide treatment, p<0.01; for apoptosis, level of active caspase 3: AEC incubated 24 h with the inducer
# Experimental: FIG. 7 depicts alveolar epithelial cells (AEC) transfected with MET WT but not with MET D1398G are protected from FasL- and cisplatin-induced apoptosis. Transfected AEC were incubated with or without FasL or cisplatin for 24 hours, collected with lysis buffer and analyzed by Caspase 3 Assay as detailed in Materials and Methods.
# (§1) FIG. 17A depicts 1403 and 1404 peptides inhibit collagen in TGFβ-stimulated LF. Cells were incubated with and without TGFβ (5 ng/ml), 1403, and 1404 peptides (1 μg/ml) or scrambled peptide (Control, Co) for 24 h and analyzed by immunoblotting using anti-collagen type I antibody. FIG. 17B depicts 1403 and 1404 but not M10 protect AEC from FasL- and cisplatin-induced apoptosis. AEC were incubated with or without 1403, 1404, or scrambled (Control) peptides, FasL, and cisplatin for 24 hours and analyzed by Caspase 3 Assay from Abcam.
# Caspase 3 Assay Kit (Abcam, Cambridge, Mass.) was used to detect apoptosis in cultured cells. The cells were plated on 100 mm plates, transfected with MET WT or D1398G, and treated with or without FasL and cisplatin for 24 h. Cell lysates were collected in accordance to with the manufacturer's instructions, transferred to a 96-well plate, and incubated with DEVD-p-NA substrate at 37° C. for 2 hours followed by reading the absorbance at 405 nm on a spectrophotometer.
# A cell-protective effect of HGF and MET have been reported in AEC in numerous studies (Crestani, et al., Proc Am Thorac Soc, 2012, 9(3):158-63 and Gazdhar, et al., Hum Gene Ther, 2013, 24(1):105-16). To investigate if the D1398G mutation interferes with anti-apoptotic effects of MET in AEC, apoptosis of AEC with FasL and cisplatin and measured caspase 3 activity in cell lysates was induced. […] In contrast, AEC transfected with the MET D1398G mutant were not protected from FasL- and cisplatin-induced apoptosis.
# To investigate if the 1403 and 1404 peptides have anti-apoptotic effects in AEC, apoptosis of AEC was induced with FasL and cisplatin and measured caspase 3 activity in cell lysates. […] In contrast, AEC treated with scrambled peptide were not protected from FasL- and cisplatin-induced apoptosis (FIG. 17B).
# [2] = test system: fetal lung fibroblasts (MRC5 immortal cell line); test: TGFβ-induced collagen type I, immunoblot; details: peptide 1 μg/ml, TGFβ 5 ng/ml, 24 h
# Experimental: FIG. 11, comprising FIG. 11A and FIG. 11B, depicts the effect of M10 on TGFβ-induced collagen type 1. FIG. 11A depicts MRC5 cells, normal lung fibroblasts, and normal skin fibroblasts were incubated with or without M10, scrambled peptide (Scr), and TGFβ for 48 hours in serum-free medium. Cell extracts were immunoblotted with anticollagen type I and anti-β-actin antibodies. FIG. 11B depicts densitometric analysis of collagen type I immunoblots from 2 independent experiments.
# as §1, with “FIG. 17B depicts 1403 and 1404 but not M10 protect AEC from FasL- and cisplatin-induced apoptosis.” left out
# Cells were collected and analyzed by immunoblotting as previously described (Bogatkevich et al., J Biol Chem. 2001, 276:45184-45192; Bogatkevich et al., Arthritis Rheum. 2007, 56:3468-3477). The phosphorylation of Smad2 was analyzed by Western blot using anti-phospho-Smad2 antibody in accordance with the manufacturer's instructions (Cell Signaling Technology). […] Total amount of Smad2 was evaluated by re-blotting with anti-Smad2 polyclonal antibody. […]
# [3] = test system: caspase-3; test: Cisplatin-induced cleaved caspase-3, Western blot; details: for cleaved or active caspase-3 by Western blot: 50 μM for 24 h
# Experimental: FIG. 5, comprising FIG. 5A and FIG. 5B, depicts effects of cisplatin in lung fibroblasts (LF) and alveolar epithelial cells (AEC) transfected with MET WT and MET D1398G. FIG. 5A depicts transfected cells were incubated with or without cisplatin for 24 hours. The cells were collected with lysis buffer and analyzed by Western blot with indicated antibodies. FIG. 5B depicts densitometric analysis of uncleaved MET detected by C12 antibody. Values are the mean and SD from three independent experiments.
Molecule,FasL-induced apoptosis (caspase 3 activity) [1],cisplatin-induced apoptosis (caspase 3 activity) [1],levels of TGFβ-induced collagen [2],"cleaved caspase by Western blot ([3]; AEC and LF, 100 μM)",cleaved or active caspase-3 by Western blot ([3]; AEC),cleaved or active caspase-3 by Western blot ([3]; LF),"apoptosis, level of active caspase 3 [1]"
"DDEVDTRPAS (1403 Peptide) [compound 1403, M5 peptide with added caspase-3 cleavage sites and an additional N-terminal aspartic acid]",significantly reduced apoptosis,significantly reduced apoptosis,significantly reduced,–,–,–,–
"DEVDTRPAS (1404 Peptide) [compound 1404, M5 peptide with added caspase-3 cleavage sites]",significantly reduced apoptosis,significantly reduced apoptosis,significantly reduced,–,–,–,–
N.N.[Cl][Pt][Cl] [cisplatin],–,–,–,yielded cleaved caspase not only in AEC but also in LF,detectable,not in LF,resulted in apoptosis reflected by an increase in the level of active caspase 3
B1,–,–,–,–,–,–,resulted in apoptosis reflected by an increase in the level of active caspase 3

# Source: patent US10344071B2, “Identification of novel anti-fibrotic peptide in C-terminal region of the MET receptor tyrosine kinase” (MUSC Foundation for Research Development, priority 2015, dated 2019)
